Source: paper PMC11995216, “End-to-End Backbone Cyclization Enhances Passive Permeability of bRo5 Oligomeric Depsipeptides with Nonlinear Size Dependence” (ACS Medicinal Chemistry Letters, 2025)
“And” between values parts separate entries of the source, which are not always exact repeats. Identical values can stand only once. Like-named read-outs stand apart in the source and are kept apart here. Blank lines part the entries; values can stand above or below the molecule they belong to.

Columns and labels:
[1] = initial concentration 500 uM, UV detection
[2] = initial concentration 500 uM, UV detection; remark: listed apart in the source
[3] = PAMPA, 500 uM
[4] = UV detection
PAMPA [5] = settings: UV detection, initial concentration 500 uM
PAMPA [6] = settings: UV detection
in vitro = settings: PAMPA
[7] = calculated using Supplement Equation 1, UV detection

Δ % diffusion [3]: ↑5% | % recovery ([4]; Well 1 / %R, Well 1): 93% | % recovery ([4]; Well 2 / %R, Well 2): 96% | % recovery ([4]; Well 3 / %R, Well 3): 85% and 90% | % recovery ([4]; Well 4 / %R, Well 4): 84% and 85% | % recovery ([4]; Well 5 / %R, Well 5): 82% | Papp (PAMPA [6]; Papp (x 10^-6 cm/s) / experiment 1): 3.2 ×10⁻⁶ cm/s | Papp (PAMPA [6]; Papp (x 10^-6 cm/s) / experiment 2): 3.8 ×10⁻⁶ cm/s | Papp (PAMPA [6]; Papp (x 10^-6 cm/s) / experiment 3): 3.8 ×10⁻⁶ cm/s | Papp (PAMPA [6]; Papp (x 10^-6 cm/s) / experiment 4): 3.7 ×10⁻⁶ cm/s | Papp (PAMPA [6]; Papp (x 10^-6 cm/s) / experiment 5): 3.9 ×10⁻⁶ cm/s | Papp (PAMPA [6]; Papp (x 10^-6 cm/s) / experiment 6): 3.4 ×10⁻⁶ cm/s | Papp (PAMPA [6]; Papp (x 10^-6 cm/s) / experiment 7): 3.9 ×10⁻⁶ cm/s | Papp (PAMPA [6]; Papp (x 10^-6 cm/s) / experiment 8): 3.3 ×10⁻⁶ cm/s | Papp (PAMPA [6]; Papp (x 10^-6 cm/s) / experiment 9): 3.7 ×10⁻⁶ cm/s | Papp (PAMPA [6]; Papp (x 10^-6 cm/s) / experiment 10): 3.6 ×10⁻⁶ cm/s | Papp at 500 uM (in vitro; LogPapp): 1.82 ×10⁻⁶ cm/s | Papp at 500 uM (in vitro; Papp): 3.44 ± 0.33 ×10⁻⁶ cm/s | %T ([7]; Well 1 / %T, Well 1): 0.43% and 0.47% | %T ([7]; Well 2 / %T, Well 2): 0.48% and 0.46% | %T ([7]; Well 3 / %T, Well 3): 0.48% and 0.47% | %T ([7]; Well 4 / %T, Well 4): 0.48% and 0.49% | %T ([7]; Well 5 / %T, Well 5): 0.5% and 0.49%
SMILES: CCCCC[C@H](OC(=O)[C@@H](C)N(C)C(=O)[C@H](CCCCC)OC(=O)[C@@H](C)N(C)C(=O)OC(C)(C)C)C(=O)OCc1ccccc1 [Compound L1.2]
donor concentration after incubation ([1]; Well 1 / [donor], Well 1, standard curve): 391 µM and 364 µM | donor concentration after incubation ([1]; Well 2 / [donor], Well 2, standard curve): 361 µM and 396 µM | donor concentration after incubation ([1]; Well 3 / [donor], Well 3, standard curve): 348 µM and 368 µM | donor concentration after incubation ([1]; Well 4 / [donor], Well 4, standard curve): 345 µM and 348 µM | donor concentration after incubation ([1]; Well 5 / [donor], Well 5, standard curve): 331 µM and 358 µM | acceptor concentration after incubation ([2]; Well 1 / [acc], Well 1, standard curve): 77 µM | acceptor concentration after incubation ([2]; Well 2 / [acc], Well 2, standard curve): 81.5 µM | acceptor concentration after incubation ([2]; Well 3 / [acc], Well 3, standard curve): 79.5 µM | acceptor concentration after incubation ([2]; Well 4 / [acc], Well 4, standard curve): 78.8 µM | acceptor concentration after incubation ([2]; Well 5 / [acc], Well 5, standard curve): 81.8 µM | Acceptor Concentration (PAMPA [5]; Acceptor Concentration (uM) / experiment 1): 72 µM | Acceptor Concentration (PAMPA [5]; Acceptor Concentration (uM) / experiment 2): 80.6 µM | Acceptor Concentration (PAMPA [5]; Acceptor Concentration (uM) / experiment 3): 77.4 µM | Acceptor Concentration (PAMPA [5]; Acceptor Concentration (uM) / experiment 4): 75.2 µM | Acceptor Concentration (PAMPA [5]; Acceptor Concentration (uM) / experiment 5): 77.1 µM | Acceptor Concentration (PAMPA [5]; Acceptor Concentration (uM) / experiment 6): 90.3 µM | Acceptor Concentration (PAMPA [5]; Acceptor Concentration (uM) / experiment 7): 86.9 µM | Acceptor Concentration (PAMPA [5]; Acceptor Concentration (uM) / experiment 8): 80.4 µM | Acceptor Concentration (PAMPA [5]; Acceptor Concentration (uM) / experiment 9): 87.3 µM | Acceptor Concentration (PAMPA [5]; Acceptor Concentration (uM) / experiment 10): 83.7 µM

LogPapp [3]: -5.55 ± 0.03 | Δ % diffusion [3]: ↑17% | % recovery ([4]; Well 1 / %R, Well 1): 95% | % recovery ([4]; Well 2 / %R, Well 2): 91% and 89% | % recovery ([4]; Well 3 / %R, Well 3): 91% | % recovery ([4]; Well 4 / %R, Well 4): 98% and 90% | % recovery ([4]; Well 5 / %R, Well 5): 89% | Papp (PAMPA [6]; Papp (x 10^-6 cm/s) / [row 1]): 2.7 ×10⁻⁶ cm/s | Papp (PAMPA [6]; Papp (x 10^-6 cm/s) / [row 2]): 2.86 ×10⁻⁶ cm/s | Papp (PAMPA [6]; Papp (x 10^-6 cm/s) / [row 3]): 3.2 ×10⁻⁶ cm/s | Papp (PAMPA [6]; Papp (x 10^-6 cm/s) / [row 4]): 2.91 ×10⁻⁶ cm/s | Papp (PAMPA [6]; Papp (x 10^-6 cm/s) / [row 5]): 2.54 ×10⁻⁶ cm/s | Papp (PAMPA [6]; Papp (x 10^-6 cm/s) / [row 6]): 2.78 ×10⁻⁶ cm/s | Papp (PAMPA [6]; Papp (x 10^-6 cm/s) / [row 7]): 2.8 ×10⁻⁶ cm/s | Papp (PAMPA [6]; Papp (x 10^-6 cm/s) / [row 8]): 2.55 ×10⁻⁶ cm/s | Papp (PAMPA [6]; Papp (x 10^-6 cm/s) / [row 9]): 2.9 ×10⁻⁶ cm/s | Papp (PAMPA [6]; Papp (x 10^-6 cm/s) / [row 10]): 2.68 ×10⁻⁶ cm/s | Papp at 500 uM (in vitro; Papp): 2.79 ± 0.19 ×10⁻⁶ cm/s | %T ([7]; Well 1 / %T, Well 1): 0.34% and 0.4% | %T ([7]; Well 2 / %T, Well 2): 0.4% | %T ([7]; Well 3 / %T, Well 3): 0.36% and 0.39% | %T ([7]; Well 4 / %T, Well 4): 0.36% and 0.38% | %T ([7]; Well 5 / %T, Well 5): 0.38% and 0.4%
SMILES: CCCCC[C@H](NC(=O)[C@@H](C)N(C)C(=O)OC(C)(C)C)C(=O)N(C)[C@H](C)C(=O)N[C@H](CCCCC)C(=O)N(C)[C@H](C)C(=O)O[C@@H](CCCCC)C(=O)N(C)[C@H](C)C(=O)O[C@@H](CCCCC)C(=O)OCc1ccccc1 (stereo in doubt) [Compound L2.2]
donor concentration after incubation ([1]; Well 1 / [donor], Well 1): 406 µM and 404 µM | donor concentration after incubation ([1]; Well 2 / [donor], Well 2): 384 µM and 380 µM | donor concentration after incubation ([1]; Well 3 / [donor], Well 3): 381 µM and 392 µM | donor concentration after incubation ([1]; Well 4 / [donor], Well 4): 416 µM and 380 µM | donor concentration after incubation ([1]; Well 5 / [donor], Well 5): 398 µM and 382 µM | acceptor concentration after incubation ([2]; Well 1 / [acc], Well 1): 70.2 µM | Acceptor Concentration (PAMPA [5]; Acceptor Concentration (uM) / [row 1]): 68.3 µM | Acceptor Concentration (PAMPA [5]; Acceptor Concentration (uM) / [row 2]): 68.9 µM | Acceptor Concentration (PAMPA [5]; Acceptor Concentration (uM) / [row 3]): 76.7 µM | Acceptor Concentration (PAMPA [5]; Acceptor Concentration (uM) / [row 4]): 75.8 µM | Acceptor Concentration (PAMPA [5]; Acceptor Concentration (uM) / [row 5]): 62.9 µM | Acceptor Concentration (PAMPA [5]; Acceptor Concentration (uM) / [row 6]): 70.1 µM | Acceptor Concentration (PAMPA [5]; Acceptor Concentration (uM) / [row 7]): 66.3 µM | Acceptor Concentration (PAMPA [5]; Acceptor Concentration (uM) / [row 8]): 62.1 µM | Acceptor Concentration (PAMPA [5]; Acceptor Concentration (uM) / [row 9]): 69 µM | Acceptor Concentration (PAMPA [5]; Acceptor Concentration (uM) / [row 10]): 63.9 µM
